Test results from patent US20150166667A1, “METHODS AND COMPOSITIONS FOR TREATING CANCER” (RAMOT AT TEL-AVIV UNIVERSITY LTD., priority 2012, published 2015).

Key:
[1] = tested on: primary keratinocytes and fibroblasts; test: 3D skin organotypic coculture, epidermal differentiation; format: cell-based, mice; settings: for expression of K14 (marker of proliferating keratinocytes) / expression of the differentiation markers Keratin-1 and Loricrin: immunohistochemistry, 10^-6M insulin or 10^-7M IGF1, FIG. 3B
Method: Primary keratinocytes and fibroblasts were isolated from WT mice, and organotypic cocultures were plated. Immediately afterwards, 10^−6M insulin or 10^−7M IGF1 was added to the growth medium and maintained throughout the experiment. Coculture inserts were further processed; H&E staining of a tissue section is shown. The effects of insulin and IGF1 on differentiation of human keratinocytes were tested in a 3-dimensional organotypic skin co-culture. In this model system, primary murine or human keratinocytes were plated on top of a fibroblast-containing collagen gel dermal equivalent. Within a few days under proper growth conditions, the 3D-organotypic coculture became organized, mimicking the histological structure of the skin tissue in vivo, including the skin epidermal layers as well as keratin formation. By mimicking the natural tissue architecture, such conditions enable keratinocytes to recapitulate their tissue-specific differentiation program in vitro.

keratin 1 = test: Keratin 1 assembly in differentiating skin cells (insoluble fraction, Western blot); format: cell-based, mice; settings: cells induced to differentiate in presence of insulin or IGF1; FIG. 19
Method: Primary skin cells were isolated from the SIRKO and IR (lox/lox) control mice and grown in culture. On day 3, the calcium concentration in the growth medium was raised from 0.05 mM to 0.12 mM to induce differentiation, and the culture was further maintained. On day 6, cells were harvested. To evaluate the effects of IR inactivation on the state of keratin filaments, cell lysates were fractionated into a Triton X-100-soluble fraction, containing the elementary keratin units, and a Triton-insoluble fraction, containing the mature keratin filaments. Western blot analysis was carried out on these fractions to estimate the amount of K1 present in each fraction, using Actin content as a loading control. […] A representative experiment of 4 repeats is depicted in the figures.

[2] = tested on: primary murine keratinocytes; test: In vitro scratch closure assay, primary murine keratinocytes; format: cell-based
Method: (§1) Insulin and IGF1 treatment: Primary murine keratinocytes were grown for 6 days in culture. On the day of the experiment insulin (10^−6M) or IGF-1 (10^−7M) were added, after which a scratch was made by a micropipette tip (day 0). In some of the plates, proliferation was inhibited by adding 25 microgram/ml mitomycin C, 4 hours prior to culture wounding. In another set of experiments (E-F) insulin receptor was inactivated by siRNA in human HaCaT skin cells. The effects of insulin and IGF1 were measured as described above. In all experiments digital photos were taken at day 0 and 24 hours later (day 1), from which 20 randomly chosen photos were taken from each treatment group and further analyzed to determine the average remaining scratch width.
(§2) The effect of insulin on skin cell migration was assessed using an in vitro scratch closure assay. Keratinocytes were grown to confluency, were left untreated or were treated with insulin or IGF-1, in the absence (6A; top panel) or presence (6A; bottom panel) of mitomycin C. The cell layer was scratched by a tip, and the degree of closure was subsequently measured. The amount of migration of control cells in each group (with or without mitomycin C) was assigned the value 100%. The average of 4 separate experiments is depicted. […] Similar results were obtained in human HaCaT skin cells in which the insulin receptor was inactivated by siRNA.

human HaCaT skin cells = test: In vitro scratch closure assay, HaCaT cells with IR inactivated by siRNA; format: cell-based; settings: FIG. 6B
Method: as §1, §2

SCC Cal 27 cells = test: Proliferation of SCC Cal 27 cells by thymidine incorporation; format: cell-based, human; settings: serum starved cells, 24 hours; FIG. 15C
Method: SCC Cal 27 cells were grown in culture to 70% confluency. The cells were serum starved for 24 hours after which a blocking anti IR antibody (Thermo Scientific; Insulin Receptor (α-Subunit) Ab-3 (Clone 47-9); Cat. #MS-633-PABX) was added at the concentrations indicated, with or without insulin as indicated, and the cells were incubated further for 24 hours.
Left, center, and right bars are insulin, 10 nM, and 20 nM respectively. […] In each case, results were normalized to control groups. The P values for 10 nM and 20 nM are as follows: control vs 10 nM Ab: p=8.616 E-5; control vs 20 nM Ab: p=1.745 E-5; control vs 10 nM Ab+insulin: p=0.00072; control vs 20 nM Ab+insulin: p=0.00558.

p21 (WAF1/Cip1) = p21 (WAF1/Cip1) expression in Ha-Ras infected keratinocytes, Western blot; format: cell-based, mouse; settings: control cells, TPA 100 nM for 24 hr, FIG. 10A
Method: Primary mouse keratinocytes derived from control and IR-KO mice were infected with Ha-Ras, and 24 hr later were treated with TPA [100 nM] or vehicle for 24 hr. Expression of p21 (WAF1/Cip1) was evaluated by Western blot analysis, using a polyclonal antibody. Localization of p21 in the cells was examined by staining for DAPI and p21 (WAF1/Cip1) and visualization using fluorescent microscopy.

## IGF1
[1]
  expression of K14 (marker of proliferating keratinocytes): maintained abnormally in apical layers
  expression of the differentiation markers Keratin-1 and Loricrin: delayed expression
Keratin 1
  assembly of K1 (keratin 1 in the insoluble fraction): opposite effect

## insulin
[1]; 10^-6M insulin or 10^-7M IGF1 in growth medium, FIG. 3A
  epidermal differentiation by histological analysis: supported epidermal differentiation
[1]
  expression of K14 (marker of proliferating keratinocytes): more rapid disappearance
  expression of the differentiation markers Keratin-1 and Loricrin: enhanced
[2]; 25 microgram/ml mitomycin C 4 hours prior to wounding, FIG. 6A bottom
  effect on scratch closure in presence of mitomycin C: not eliminated
[2]; insulin 10^-6M, IGF-1 10^-7M, 24 hours, absence of mitomycin C, FIG. 6A top
  scratch closure: facilitated scratch closure more than IGF
Human HaCaT skin cells
  effect on scratch closure in IR-inactivated cells: eliminated by IR inactivation
SCC Cal 27 cells
  SCC cancer cell proliferation with insulin alone: increased the proliferation
Keratin 1
  assembly of K1 (keratin 1 in the insoluble fraction): enhanced assembly of K1

## CCCCCCCCCCCCCC(=O)O[C@@H]1[C@@H](C)[C@@]2(O)[C@@H](C=C(CO)C[C@]3(O)C(=O)C(C)=C[C@@H]23)[C@@H]2C(C)(C)[C@]12OC(C)=O [TPA, 12-O-tetradecanoylphorbol-13-acetate]
p21 (WAF1/Cip1)
  levels of p21, a marker of cellular senescence: decreased levels of p21
